The target of one assay is T1, TBK1 (Homo sapiens, UniProt Q9UHD2).
T1 construct: purchased Promega V3991
T1 sequence (Q9UHD2 1-729): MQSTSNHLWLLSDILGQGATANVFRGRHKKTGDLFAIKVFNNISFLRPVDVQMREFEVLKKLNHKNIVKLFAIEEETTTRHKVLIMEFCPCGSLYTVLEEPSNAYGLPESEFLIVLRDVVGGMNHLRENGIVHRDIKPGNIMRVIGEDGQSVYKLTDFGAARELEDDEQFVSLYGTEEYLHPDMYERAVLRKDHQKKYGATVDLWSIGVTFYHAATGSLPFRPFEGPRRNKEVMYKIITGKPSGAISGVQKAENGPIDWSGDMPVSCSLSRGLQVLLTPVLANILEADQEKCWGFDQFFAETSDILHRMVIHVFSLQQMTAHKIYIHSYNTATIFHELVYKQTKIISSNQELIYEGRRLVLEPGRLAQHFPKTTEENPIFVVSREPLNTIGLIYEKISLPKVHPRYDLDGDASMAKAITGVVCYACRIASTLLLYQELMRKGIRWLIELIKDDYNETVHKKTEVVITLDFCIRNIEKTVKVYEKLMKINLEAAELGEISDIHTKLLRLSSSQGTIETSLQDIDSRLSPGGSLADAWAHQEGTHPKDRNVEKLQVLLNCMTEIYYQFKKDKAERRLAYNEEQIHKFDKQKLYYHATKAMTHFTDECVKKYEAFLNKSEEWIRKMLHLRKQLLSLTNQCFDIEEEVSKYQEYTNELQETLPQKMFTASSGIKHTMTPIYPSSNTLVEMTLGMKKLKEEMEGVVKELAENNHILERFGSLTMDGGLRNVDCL
The assay is described as follows: TBK1 inhibition, ADP-Glo Kinase Assay. Type of assay: biochemical. As to conditions: luminometer. Summed up:
(§1)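 Each recombinant kinase enzyme system was run per the manufacturer's protocol in 40 mM Tris pH 7.5, 20 mM MgCl2 and 0.1 mg/mL BSA. Kinase activity was detected as ADP formation by ADP-Glo luminescence.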

The next assay concerns the target T2, IKKε (Homo sapiens, UniProt Q14164).
T2 construct: purchased Invitrogen PR8031B
T2 sequence (Q14164 1-716): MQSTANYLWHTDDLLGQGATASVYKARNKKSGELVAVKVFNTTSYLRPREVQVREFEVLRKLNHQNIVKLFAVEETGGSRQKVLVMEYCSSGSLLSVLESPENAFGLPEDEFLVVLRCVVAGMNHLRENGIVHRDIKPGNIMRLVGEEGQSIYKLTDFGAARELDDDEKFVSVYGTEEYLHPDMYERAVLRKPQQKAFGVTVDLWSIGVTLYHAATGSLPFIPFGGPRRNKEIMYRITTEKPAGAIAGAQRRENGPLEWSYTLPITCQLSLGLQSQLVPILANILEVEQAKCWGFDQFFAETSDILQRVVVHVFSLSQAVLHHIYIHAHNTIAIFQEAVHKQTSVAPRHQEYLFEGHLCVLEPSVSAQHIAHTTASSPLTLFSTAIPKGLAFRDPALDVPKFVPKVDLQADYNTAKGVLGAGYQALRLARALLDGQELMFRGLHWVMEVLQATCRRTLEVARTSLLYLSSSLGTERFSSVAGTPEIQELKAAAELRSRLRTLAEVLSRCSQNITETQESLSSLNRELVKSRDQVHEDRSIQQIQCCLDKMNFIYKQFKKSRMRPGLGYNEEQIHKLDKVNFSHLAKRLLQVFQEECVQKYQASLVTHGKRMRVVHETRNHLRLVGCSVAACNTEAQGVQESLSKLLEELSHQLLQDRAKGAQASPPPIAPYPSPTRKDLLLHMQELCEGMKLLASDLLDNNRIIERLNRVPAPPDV
The assay is described as follows: IKKε inhibition, ADP-Glo Kinase Assay. It is filed as biochemical. The following applies: luminometer. The gist of the method: as §1
(In general: ADP-Glo turns the ADP formed in a reaction into a luminescent signal.)

Structures can show the parent of a compound that is named as a salt.

`O=C(NCc1ccccn1)c1ccc2[nH]nc(NC(=O)c3ccc(F)cc3)c2c1` [Example 28, 3-(4-Fluorobenzamido)-N-(pyridin-2-ylmethyl)-1H-indazole-5-carboxamide2,2,2-trifluoroacetate]: the 50% inhibitory concentration (IC50) at TBK1 came to 0.73 µM; against IKKε it was 2.62 µM.

Consider `CC(NC(=O)c1ccc2[nH]nc(NC(=O)c3ccc(N4CCOCC4)cc3)c2c1)c1ccccc1` (stereo not drawn) [Example 180, 3-(4-Morpholinobenzamido)-N-(1-phenylethyl)-1H-indazole-5-carboxamide], for which the IC50 on TBK1 worked out at 0.0023 µM; at IKKε it was 0.12 µM.

In the case of `CC(C)CCNC(=O)c1ccc2[nH]nc(NC(=O)c3ccc(F)cc3)c2c1` [Example 25, 3-(4-Fluorobenzamido)-N-isopentyl-1H-indazole-5-carboxamide], the half-inhibitory concentration (IC50) amounted to 0.42 µM at TBK1 and 5.87 µM on IKKε.

With `CN1CCN(c2ccc(C(=O)Nc3n[nH]c4ccc(C(=O)NC(c5ccccc5)C5CC5)cc34)cc2)CC1` (stereo not drawn) [Example 197, N-(Cyclopropyl(phenyl)methyl)-3-(4-(4-methylpiperazin-1-yl)benzamido)-1H-indazole-5-carboxamide], the figures for the IC50 against TBK1 and against IKKε were 0.027 µM and 0.042 µM, respectively.

With `C[C@@H](NC(=O)c1ccc2[nH]nc(NC(=O)c3ccc(N4CCN(C)CC4)cc3)c2c1)c1ccccc1` [Example 175, (R)-3-(4-(4-Methylpiperazin-1-yl)benzamido)-N-(1-phenylethyl)-1H-indazole-5-carboxamide], the half-maximal inhibitory concentration (IC50) stood at 0.0024 µM against TBK1 and 0.0076 µM against IKKε.

As to `O=C(NCc1ncon1)c1ccc2[nH]nc(NC(=O)c3ccc(N4CCOCC4)cc3)c2c1` [Example 105, N-((1,2,4-Oxadiazol-3-yl)methyl)-3-(4-morpholinobenzamido)-1H-indazole-5-carboxamide 2,2,2-trifluoroacetate], the IC50 on TBK1 was determined as 0.1 µM; at IKKε it was 1.14 µM.

With `CCCCNC(=O)c1ccc2[nH]nc(NC(=O)c3ccc(N4CCOCC4)cc3)c2c1` [Example 115, N-Butyl-3-(4-morpholinobenzamido)-1H-indazole-5-carboxamide 2,2,2-trifluoroacetate], the half-inhibitory concentration (IC50) was 0.071 µM against TBK1 and 0.97 µM against IKKε.

For `COc1ccc(C(=O)Nc2n[nH]c3ccc(C(=O)NCc4ccco4)cc23)cc1` [Example 2, N-(Furan-2-yl-methyl)-3-(4-methoxybenzamido)-1H-indazole-5-carboxamide], the half-inhibitory concentration (IC50) against TBK1 was 0.037 µM; against IKKε it was 0.13 µM.

For the compound `CC(=O)Nc1ccc(C(=O)Nc2n[nH]c3ccc(C(=O)NCc4cccs4)cc23)cc1` [Example 211, 3-(4-Acetamidobenzamido)-N-(thiophen-2-ylmethyl)-1H-indazole-5-carboxamide], the results for the IC50 on TBK1 and against IKKε were 0.0013 µM and 0.079 µM, respectively.

On to `CC(NC(=O)c1ccc2[nH]nc(NC(=O)c3ccc(N4CCN[C@H](C)C4)cc3)c2c1)c1ccccc1` (stereo partly drawn) [Example 185, 3-(4-((R)-3-Methylpiperazin-1-yl)benzamido)-N-(1-phenylethyl)-1H-indazole-5-carboxamide 2,2,2-trifluoroacetate], for which the IC50 came out at 0.0033 µM on TBK1 and 0.019 µM at IKKε.

In the case of `CN1CCN(c2ccc(C(=O)Nc3n[nH]c4ccc(C(=O)NCc5c[nH]nn5)cc34)cc2)CC1` [Example 94, N-((1H-1,2,3-Triazol-4-yl)methyl)-3-(4-(4-methylpiperazin-1-yl)benzamido)-1H-indazole-5-carboxamide], the results for the 50% inhibitory concentration (IC50) on TBK1 and against IKKε were 0.24 µM and 1.59 µM, respectively.

For the compound `O=C(Nc1n[nH]c2ccc(C(=O)NC(c3cccnc3)C3CC3)cc12)c1ccc(N2CCOCC2)cc1` (stereo not drawn) [Example 142, N-(Cyclopropyl(pyridin-3-yl)methyl)-3-(4-morpholinobenzamido)-1H-indazole-5-carboxamide], the values for the IC50 against TBK1 and against IKKε were 0.067 µM and 0.096 µM, respectively.

With `CN1CCN(c2ccc(C(=O)Nc3n[nH]c4ccc(C(=O)NCc5ccc(F)cc5)cc34)cc2)CC1` [Example 189, N-(4-Fluorobenzyl)-3-(4-(4-methylpiperazin-1-yl)benzamido)-1H-indazole-5-carboxamide], the IC50 at TBK1 turned out to be 0.019 µM; on IKKε, 0.13 µM.

For `Cc1cc(CNC(=O)c2ccc3[nH]nc(NC(=O)c4ccc(N5CCN(C)CC5)cc4)c3c2)ccn1` [Example 70, 3-(4-(4-Methylpiperazin-1-yl)benzamido)-N-((2-methylpyridin-4-yl)methyl)-1H-indazole-5-carboxamide], the values for the IC50 against TBK1 and at IKKε were 0.18 µM and 1.5 µM, respectively.

As for `N#CC1(NC(=O)c2ccc3[nH]nc(NC(=O)c4ccc(F)cc4)c3c2)CC1` [Example 16, N-(1-Cyanocyclopropyl)-3-(4-fluorobenzamido)-1H-indazole-5-carboxamide], the half-inhibitory concentration (IC50) at TBK1 was determined as 0.39 µM; against IKKε it was 0.91 µM.

For `O=C(NCc1cncs1)c1ccc2[nH]nc(NC(=O)c3ccc(F)cc3)c2c1` [Example 27, 3-(4-Fluorobenzamido)-N-(thiazol-5-ylmethyl)-1H-indazole-5-carboxamide 2,2,2-trifluoroacetate], the 50% inhibitory concentration (IC50) against TBK1 came out at 0.2 µM; against IKKε, 0.36 µM.

Take `O=C(NCC1CCCC1)c1ccc2[nH]nc(NC(=O)c3ccc(N4CCOCC4)cc3)c2c1` [Example 91, N-(Cyclopentylmethyl)-3-(4-morpholinobenzamido)-1H-indazole-5-carboxamide 2,2,2-trifluoroacetate]: the half-inhibitory concentration (IC50) was determined as 0.0053 µM at TBK1 and 0.093 µM against IKKε.

Consider `CC[C@H](NC(=O)c1ccc2[nH]nc(NC(=O)c3ccc(N4CCN(C)CC4)cc3)c2c1)c1cccs1` [Example 111, (S)-3-(4-(4-Methylpiperazin-1-yl)benzamido)-N-(1-(thiophen-2-yl)propyl)-1H-indazole-5-carboxamide], for which the figures for the IC50 against TBK1 and against IKKε were 0.014 µM and 0.074 µM, respectively.

For the compound `COc1ccc(C(=O)Nc2n[nH]c3ccc(C(=O)NCc4cccs4)cc23)nc1` [Example 8, 3-(5-Methoxypicolinamido)-N-(thiophen-2-ylmethyl)-1H-indazole-5-carboxamide Hydrochloride], the figures for the IC50 at TBK1 and against IKKε were 0.082 µM and 0.33 µM, respectively.

On to `O=C(NCc1nccs1)c1ccc2[nH]nc(NC(=O)c3ccc(N4CCOCC4)cc3)c2c1` [Example 104, 3-(4-Morpholinobenzamido)-N-(thiazol-2-ylmethyl)-1H-indazole-5-carboxamide 2,2,2-trifluoroacetate], for which the IC50 stood at 0.026 µM against TBK1 and 0.37 µM against IKKε.

In the case of `CN1CCN(c2ccc(C(=O)Nc3n[nH]c4ccc(C(=O)NCc5cccnc5)cc34)cc2)CC1` [Example 57, 3-(4-(4-Methylpiperazin-1-yl)benzamido)-N-(pyridin-3-ylmethyl)-1H-indazole-5-carboxamide bis(2,2,2-trifluoroacetate)], the figures for the IC50 against TBK1 and against IKKε were 0.0012 µM and 0.14 µM, respectively.

With `CCC(NC(=O)c1ccc2[nH]nc(NC(=O)c3ccc(N4CCN(C)CC4)cc3)c2c1)c1ccccc1` (stereo not drawn) [Example 187, 3-(4-(4-Methylpiperazin-1-yl)benzamido)-N-(1-phenylpropyl)-1H-indazole-5-carboxamide], the half-maximal inhibitory concentration (IC50) on TBK1 stood at 0.0035 µM; against IKKε, 0.018 µM.

Regarding `CC[C@H](NC(=O)c1ccc2[nH]nc(NC(=O)c3ccc(N4CCN(C)CC4)cc3)c2c1)c1ccccc1` [Example 190, (S)-3-(4-(4-Methylpiperazin-1-yl)benzamido)-N-(1-phenylpropyl)-1H-indazole-5-carboxamide], the IC50 worked out at 0.34 µM against TBK1 and 1.23 µM on IKKε.

Take `CN1CCN(c2ccc(C(=O)Nc3n[nH]c4ccc(C(=O)NCc5ccc(C(F)(F)F)nc5)cc34)cc2)CC1` [Example 72, 3-(4-(4-Methylpiperazin-1-yl)benzamido)-N-((6-(trifluoromethyl)pyridin-3-yl)methyl)-1H-indazole-5-carboxamide]: the values for the IC50 at TBK1 and against IKKε were 0.35 µM and 1.83 µM, respectively.

As a reminder, the IC50 is the point on the concentration scale where inhibition reaches its midpoint. Read a high IC50 as weaker potency.

The values are drawn from patent US10294207B2, “Pyrazole derivatives as TNIK, IKKϵ and TBK1 inhibitor and pharmaceutical composition comprising same” (GREEN CROSS CORPORATION, priority 2015, dated 2019).
